Data on three compounds can be found in patent publication US20150164907A1, “COMPOSITIONS AND METHODS FOR TREATING DISEASE” (ANGION BIOMEDICA CORP., priority 2013, published 2015).

The assay deals with SK-BR-3 breast cancer cells. Description: Proliferation of SK-BR-3 breast cancer cells, checkerboard design, Cell Titer Glo after 7 days. The conditions noted are these: for IC50: Homo sapiens. The class given is cell-based. The protocol:
The effect of ATRA in combination with GDC-0941 or NVP-BEZ235 on the proliferation of SK-BR-3 breast cancer cells was evaluated. […] To test the combination of ATRA and PI3Km/TOR inhibitors, cells were plated in a 96-well plate and treated with compounds in a “checkerboard” design. After 7 days the cell proliferation was determined using the Cell Titer Glo reagent (Promega). […] The bliss additivity model predicts the shape of the curve and magnitude of growth inhibition if the effects of two compounds is additive.
Another method to determine the interaction between two compounds is the combination index (CI) method, which can be calculated by the computer program Calcusyn.
In general terms: ATP-based viability assays read luminescence as a measure of living cells.

Setting [1] is: SK-BR-3, 168 h, in the absence of ATRA, 7 days, read-out: estimated IC50, proliferation of SK-BR-3 growth.
Setting [2] is: SK-BR-3, 168 h, in the presence of 10 nM ATRA, 7 days, read-out: IC50, proliferation of SK-BR-3 cells.

Like-named read-outs stand apart in the source and are kept apart here.

With `CS(=O)(=O)N1CCN(Cc2cc3nc(-c4cccc5[nH]ncc45)nc(N4CCOCC4)c3s2)CC1` [GDC-0941, 2-(1H-indazol-4-yl)-6-(4-methanesulfonyl-piperazin-1-ylmethyl)-4-morpholin-4-yl-thieno[3,2-d]pyrimidine], the IC50 under setting [1] was 126 nM and the IC50 under setting [2] amounted to 35 nM.
For `Cn1c(=O)n(-c2ccc(C(C)(C)C#N)cc2)c2c3cc(-c4cnc5ccccc5c4)ccc3ncc21` [NVP-BEZ235] the same measures were 145 nM and 57 nM.
Regarding `CC1=C(/C=C/C(C)=C/C=C/C(C)=C/C(=O)O)C(C)(C)CCC1` [ATRA, all-trans retinoic acid], the “inhibition of cell proliferation by ATRA by itself” value (10 nM ATRA alone) was “only mildly inhibited cell proliferation”. Also, the IC50 (SK-BR-3, ATRA alone, read-out: estimated IC50, proliferation of SK-BR-3 cells) is 40 nM.
